Measured values from patent publication US8703961B2, “Thiazole derivatives for the treatment of diseases such as cancer” (Merck Patent GmbH, priority 2009, dated 2014).

Columns and labels:
Assay in all cases: filter binding kinase assay
Assay type in all cases: biochemical
[1] = target: T1, IKBKB (Homo sapiens, UniProt O14920); conditions: derived from % inhibition at 1 μM
T1 construct: purchased
T1 sequence (O14920 1-756): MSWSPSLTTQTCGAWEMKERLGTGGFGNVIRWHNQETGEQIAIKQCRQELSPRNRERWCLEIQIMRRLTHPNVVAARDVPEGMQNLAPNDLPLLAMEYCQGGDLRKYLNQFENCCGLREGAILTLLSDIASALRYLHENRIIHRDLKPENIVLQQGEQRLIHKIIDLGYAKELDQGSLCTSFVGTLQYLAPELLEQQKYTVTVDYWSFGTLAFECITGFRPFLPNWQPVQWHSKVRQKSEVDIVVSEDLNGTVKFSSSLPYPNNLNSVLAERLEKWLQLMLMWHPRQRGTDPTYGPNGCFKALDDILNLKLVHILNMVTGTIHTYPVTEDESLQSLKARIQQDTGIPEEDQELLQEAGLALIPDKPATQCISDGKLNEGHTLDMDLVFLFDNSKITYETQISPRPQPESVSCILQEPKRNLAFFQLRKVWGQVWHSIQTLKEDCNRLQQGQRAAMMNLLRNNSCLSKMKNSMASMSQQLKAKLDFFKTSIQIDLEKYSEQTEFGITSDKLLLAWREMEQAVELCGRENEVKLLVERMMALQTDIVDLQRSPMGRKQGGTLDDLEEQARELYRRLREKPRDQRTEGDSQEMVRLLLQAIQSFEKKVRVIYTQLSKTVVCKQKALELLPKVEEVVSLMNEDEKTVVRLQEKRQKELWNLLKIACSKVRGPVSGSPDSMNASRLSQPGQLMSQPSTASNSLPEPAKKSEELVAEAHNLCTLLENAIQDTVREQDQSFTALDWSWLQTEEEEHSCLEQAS
Procedure, shortened: (§1)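 Each reaction ran at ambient temperature following a five-minute compound preincubation, was started with ATP (5, 20 or 50 […] stock, per enzyme) and stopped with acid; substrate phosphorylation was read by scintillation counting of P81 filters.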

[2] = target: T2, PLK1 (Homo sapiens, UniProt P53350); conditions: derived from % inhibition at 1 μM
T2 construct: purchased
T2 sequence (P53350 whole entry, species assumed): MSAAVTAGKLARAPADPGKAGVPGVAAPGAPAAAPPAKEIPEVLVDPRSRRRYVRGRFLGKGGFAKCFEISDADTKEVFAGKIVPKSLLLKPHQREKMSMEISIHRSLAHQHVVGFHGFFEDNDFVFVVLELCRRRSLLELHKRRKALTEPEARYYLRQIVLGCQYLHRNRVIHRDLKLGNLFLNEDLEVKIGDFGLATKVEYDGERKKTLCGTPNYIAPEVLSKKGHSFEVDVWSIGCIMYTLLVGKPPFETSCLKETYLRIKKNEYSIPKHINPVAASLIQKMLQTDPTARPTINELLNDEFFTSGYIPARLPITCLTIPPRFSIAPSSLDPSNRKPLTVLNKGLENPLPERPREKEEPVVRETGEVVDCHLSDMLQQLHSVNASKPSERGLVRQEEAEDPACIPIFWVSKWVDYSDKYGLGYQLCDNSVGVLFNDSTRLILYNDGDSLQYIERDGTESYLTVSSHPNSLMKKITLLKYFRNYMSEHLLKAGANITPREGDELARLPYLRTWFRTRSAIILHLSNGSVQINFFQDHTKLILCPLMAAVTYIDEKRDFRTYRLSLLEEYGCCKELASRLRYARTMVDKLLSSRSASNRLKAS
Procedure, shortened: as §1

[3] = target: T3, IRAK4 (Homo sapiens, UniProt Q9NWZ3); conditions: derived from % inhibition at 1 μM
T3 construct: purchased
T3 sequence (Q9NWZ3 1-460): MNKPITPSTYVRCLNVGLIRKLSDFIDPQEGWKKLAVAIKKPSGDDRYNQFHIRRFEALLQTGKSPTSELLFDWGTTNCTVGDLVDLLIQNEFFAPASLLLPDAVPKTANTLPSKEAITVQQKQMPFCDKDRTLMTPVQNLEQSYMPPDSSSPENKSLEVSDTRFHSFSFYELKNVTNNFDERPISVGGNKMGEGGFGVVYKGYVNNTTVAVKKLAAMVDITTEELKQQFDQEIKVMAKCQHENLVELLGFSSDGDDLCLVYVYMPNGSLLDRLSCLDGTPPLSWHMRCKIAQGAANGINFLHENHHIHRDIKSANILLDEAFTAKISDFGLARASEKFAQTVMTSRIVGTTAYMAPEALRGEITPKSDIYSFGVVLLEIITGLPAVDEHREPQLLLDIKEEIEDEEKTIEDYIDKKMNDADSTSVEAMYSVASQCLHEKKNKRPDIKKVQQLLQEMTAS
Procedure, shortened: as §1

[4] = target: T4, CSK (Homo sapiens, UniProt P41240); conditions: derived from % inhibition at 1 μM
T4 construct: purchased
Procedure, shortened: as §1

[5] = target: T5, MAPK11 (Homo sapiens, UniProt Q15759); conditions: derived from % inhibition at 1 μM
T5 construct: purchased
T5 sequence (Q15759 whole entry, species assumed): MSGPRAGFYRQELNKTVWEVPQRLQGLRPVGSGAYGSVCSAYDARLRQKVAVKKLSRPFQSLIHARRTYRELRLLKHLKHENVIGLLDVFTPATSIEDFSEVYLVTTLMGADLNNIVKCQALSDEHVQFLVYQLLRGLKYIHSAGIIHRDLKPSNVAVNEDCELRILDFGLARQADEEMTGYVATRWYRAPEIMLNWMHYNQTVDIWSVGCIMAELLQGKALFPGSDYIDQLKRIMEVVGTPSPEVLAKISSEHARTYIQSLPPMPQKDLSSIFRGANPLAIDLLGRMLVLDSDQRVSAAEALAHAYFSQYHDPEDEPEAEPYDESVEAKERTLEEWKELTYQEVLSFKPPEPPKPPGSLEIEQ
Procedure, shortened: as §1

[6] = target: T6, HIPK1 (Homo sapiens, UniProt Q86Z02); conditions: for IC50: derived from % inhibition at 1 μM; for remaining activity at 1 µM: read-out: residual kinase activity HIPK1
T6 construct: purchased
T6 sequence (Q86Z02 whole entry, species assumed): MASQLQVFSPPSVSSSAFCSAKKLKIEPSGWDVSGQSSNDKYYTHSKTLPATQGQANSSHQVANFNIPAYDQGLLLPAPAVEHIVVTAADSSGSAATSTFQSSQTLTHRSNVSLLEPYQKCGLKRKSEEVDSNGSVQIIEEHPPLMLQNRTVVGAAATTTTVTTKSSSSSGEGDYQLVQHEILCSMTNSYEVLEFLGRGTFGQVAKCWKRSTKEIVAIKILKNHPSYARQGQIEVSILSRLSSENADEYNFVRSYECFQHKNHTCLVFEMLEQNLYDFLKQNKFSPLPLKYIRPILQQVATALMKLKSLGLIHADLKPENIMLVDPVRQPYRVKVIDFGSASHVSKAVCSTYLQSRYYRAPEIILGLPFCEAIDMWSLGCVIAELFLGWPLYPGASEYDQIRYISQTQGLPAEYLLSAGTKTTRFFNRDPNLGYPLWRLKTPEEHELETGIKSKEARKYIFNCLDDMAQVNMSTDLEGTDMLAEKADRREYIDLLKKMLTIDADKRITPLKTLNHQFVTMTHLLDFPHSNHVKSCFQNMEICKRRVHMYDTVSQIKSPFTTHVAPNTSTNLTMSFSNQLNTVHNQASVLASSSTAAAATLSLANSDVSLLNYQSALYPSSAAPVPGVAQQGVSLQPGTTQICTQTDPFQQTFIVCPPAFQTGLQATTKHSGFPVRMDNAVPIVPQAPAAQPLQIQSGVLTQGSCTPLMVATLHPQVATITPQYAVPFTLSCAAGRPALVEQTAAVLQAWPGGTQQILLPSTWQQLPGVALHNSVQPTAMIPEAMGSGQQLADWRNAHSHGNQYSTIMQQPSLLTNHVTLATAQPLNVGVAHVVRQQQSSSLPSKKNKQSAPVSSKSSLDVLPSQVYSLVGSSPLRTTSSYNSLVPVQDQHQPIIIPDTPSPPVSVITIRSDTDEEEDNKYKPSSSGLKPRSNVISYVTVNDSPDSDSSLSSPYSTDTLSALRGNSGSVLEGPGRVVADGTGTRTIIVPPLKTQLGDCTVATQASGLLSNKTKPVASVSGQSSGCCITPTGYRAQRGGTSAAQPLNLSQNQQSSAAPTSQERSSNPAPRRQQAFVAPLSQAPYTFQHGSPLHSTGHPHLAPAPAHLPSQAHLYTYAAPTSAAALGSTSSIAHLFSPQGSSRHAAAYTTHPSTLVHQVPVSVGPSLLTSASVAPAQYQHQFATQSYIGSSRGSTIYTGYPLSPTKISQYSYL
Procedure, shortened: as §1

[7] = target: T7, RPS6KB1 (Homo sapiens, UniProt P23443); conditions: derived from % inhibition at 1 μM
T7 construct: purchased
T7 sequence (P23443 whole entry, species assumed): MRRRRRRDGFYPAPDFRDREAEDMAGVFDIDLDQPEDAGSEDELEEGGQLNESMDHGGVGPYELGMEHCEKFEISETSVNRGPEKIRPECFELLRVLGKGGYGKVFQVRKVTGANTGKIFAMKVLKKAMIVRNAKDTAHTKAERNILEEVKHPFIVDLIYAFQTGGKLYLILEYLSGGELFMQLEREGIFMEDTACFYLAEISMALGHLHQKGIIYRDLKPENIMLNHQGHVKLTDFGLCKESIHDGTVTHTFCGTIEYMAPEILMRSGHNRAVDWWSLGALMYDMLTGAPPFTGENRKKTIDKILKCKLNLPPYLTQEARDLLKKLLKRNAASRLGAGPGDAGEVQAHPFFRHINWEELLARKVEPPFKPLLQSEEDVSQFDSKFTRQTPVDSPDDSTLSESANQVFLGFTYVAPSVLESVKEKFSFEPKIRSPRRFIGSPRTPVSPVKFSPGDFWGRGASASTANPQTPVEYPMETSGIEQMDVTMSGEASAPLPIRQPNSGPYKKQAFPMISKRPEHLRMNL
Procedure, shortened: as §1

[8] = target: T8, HIPK2 (Homo sapiens, UniProt Q9H2X6); conditions: for IC50: derived from % inhibition at 1 μM
T8 construct: purchased
T8 sequence (Q9H2X6 whole entry, species assumed): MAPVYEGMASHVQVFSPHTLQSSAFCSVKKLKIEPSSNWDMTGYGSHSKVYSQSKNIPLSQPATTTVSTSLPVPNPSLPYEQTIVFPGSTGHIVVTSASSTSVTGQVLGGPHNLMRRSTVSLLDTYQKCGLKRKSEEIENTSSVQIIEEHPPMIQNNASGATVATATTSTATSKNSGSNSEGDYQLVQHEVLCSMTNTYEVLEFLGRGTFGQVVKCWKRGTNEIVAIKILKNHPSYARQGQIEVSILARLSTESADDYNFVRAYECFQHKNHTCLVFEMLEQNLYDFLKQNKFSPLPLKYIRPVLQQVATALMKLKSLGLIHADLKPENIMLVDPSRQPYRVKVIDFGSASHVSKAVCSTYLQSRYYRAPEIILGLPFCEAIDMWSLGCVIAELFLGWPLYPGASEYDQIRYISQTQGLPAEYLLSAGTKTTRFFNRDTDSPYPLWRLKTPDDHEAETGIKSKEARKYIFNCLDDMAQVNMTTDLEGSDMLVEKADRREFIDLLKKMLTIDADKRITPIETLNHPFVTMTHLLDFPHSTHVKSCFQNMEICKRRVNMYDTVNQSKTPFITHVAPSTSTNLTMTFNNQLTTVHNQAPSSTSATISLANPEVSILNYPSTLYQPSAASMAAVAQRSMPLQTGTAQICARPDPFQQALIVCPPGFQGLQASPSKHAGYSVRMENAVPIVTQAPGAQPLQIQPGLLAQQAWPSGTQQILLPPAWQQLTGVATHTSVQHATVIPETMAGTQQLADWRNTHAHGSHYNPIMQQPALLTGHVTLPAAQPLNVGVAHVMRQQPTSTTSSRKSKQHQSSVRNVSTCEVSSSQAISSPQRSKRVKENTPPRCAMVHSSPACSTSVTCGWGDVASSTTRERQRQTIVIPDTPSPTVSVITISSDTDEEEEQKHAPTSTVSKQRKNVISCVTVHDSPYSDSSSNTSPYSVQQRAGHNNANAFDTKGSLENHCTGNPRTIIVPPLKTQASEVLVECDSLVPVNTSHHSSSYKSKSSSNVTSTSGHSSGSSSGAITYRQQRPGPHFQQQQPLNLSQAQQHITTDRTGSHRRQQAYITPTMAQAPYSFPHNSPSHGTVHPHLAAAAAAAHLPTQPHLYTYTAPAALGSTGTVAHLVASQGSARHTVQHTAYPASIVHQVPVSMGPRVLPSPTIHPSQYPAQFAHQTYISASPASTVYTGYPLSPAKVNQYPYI
Procedure, shortened: as §1

[9] = target: T9, TBK1 (Homo sapiens, UniProt Q9UHD2); conditions: derived from % inhibition at 1 μM
T9 construct: purchased
T9 sequence (Q9UHD2 1-729): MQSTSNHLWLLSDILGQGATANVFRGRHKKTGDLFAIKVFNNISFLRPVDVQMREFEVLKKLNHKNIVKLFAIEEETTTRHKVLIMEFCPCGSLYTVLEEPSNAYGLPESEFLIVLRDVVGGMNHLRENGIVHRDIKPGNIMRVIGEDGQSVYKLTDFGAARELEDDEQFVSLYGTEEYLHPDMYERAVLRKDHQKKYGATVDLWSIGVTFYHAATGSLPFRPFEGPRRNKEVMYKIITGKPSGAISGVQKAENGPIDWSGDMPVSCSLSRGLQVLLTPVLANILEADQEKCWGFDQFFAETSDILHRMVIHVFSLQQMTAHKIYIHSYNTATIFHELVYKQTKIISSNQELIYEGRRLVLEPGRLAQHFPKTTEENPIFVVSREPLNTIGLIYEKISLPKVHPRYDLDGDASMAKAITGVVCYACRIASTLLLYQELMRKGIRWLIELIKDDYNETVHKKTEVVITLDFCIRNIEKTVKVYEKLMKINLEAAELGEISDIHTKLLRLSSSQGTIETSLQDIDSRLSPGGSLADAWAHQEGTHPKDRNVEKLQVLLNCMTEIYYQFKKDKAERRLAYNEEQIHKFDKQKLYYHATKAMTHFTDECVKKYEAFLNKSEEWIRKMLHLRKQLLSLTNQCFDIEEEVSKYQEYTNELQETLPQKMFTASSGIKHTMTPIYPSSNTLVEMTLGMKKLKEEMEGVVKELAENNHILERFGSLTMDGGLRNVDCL
Procedure, shortened: as §1

[10] = target: T10, PIM1 (Homo sapiens, UniProt P11309); conditions: derived from % inhibition at 1 μM
T10 construct: purchased
Procedure, shortened: as §1

[11] = target: T11, MAP3K9 (Homo sapiens, UniProt P80192); conditions: derived from % inhibition at 1 μM
T11 construct: purchased
T11 sequence (P80192 whole entry, species assumed): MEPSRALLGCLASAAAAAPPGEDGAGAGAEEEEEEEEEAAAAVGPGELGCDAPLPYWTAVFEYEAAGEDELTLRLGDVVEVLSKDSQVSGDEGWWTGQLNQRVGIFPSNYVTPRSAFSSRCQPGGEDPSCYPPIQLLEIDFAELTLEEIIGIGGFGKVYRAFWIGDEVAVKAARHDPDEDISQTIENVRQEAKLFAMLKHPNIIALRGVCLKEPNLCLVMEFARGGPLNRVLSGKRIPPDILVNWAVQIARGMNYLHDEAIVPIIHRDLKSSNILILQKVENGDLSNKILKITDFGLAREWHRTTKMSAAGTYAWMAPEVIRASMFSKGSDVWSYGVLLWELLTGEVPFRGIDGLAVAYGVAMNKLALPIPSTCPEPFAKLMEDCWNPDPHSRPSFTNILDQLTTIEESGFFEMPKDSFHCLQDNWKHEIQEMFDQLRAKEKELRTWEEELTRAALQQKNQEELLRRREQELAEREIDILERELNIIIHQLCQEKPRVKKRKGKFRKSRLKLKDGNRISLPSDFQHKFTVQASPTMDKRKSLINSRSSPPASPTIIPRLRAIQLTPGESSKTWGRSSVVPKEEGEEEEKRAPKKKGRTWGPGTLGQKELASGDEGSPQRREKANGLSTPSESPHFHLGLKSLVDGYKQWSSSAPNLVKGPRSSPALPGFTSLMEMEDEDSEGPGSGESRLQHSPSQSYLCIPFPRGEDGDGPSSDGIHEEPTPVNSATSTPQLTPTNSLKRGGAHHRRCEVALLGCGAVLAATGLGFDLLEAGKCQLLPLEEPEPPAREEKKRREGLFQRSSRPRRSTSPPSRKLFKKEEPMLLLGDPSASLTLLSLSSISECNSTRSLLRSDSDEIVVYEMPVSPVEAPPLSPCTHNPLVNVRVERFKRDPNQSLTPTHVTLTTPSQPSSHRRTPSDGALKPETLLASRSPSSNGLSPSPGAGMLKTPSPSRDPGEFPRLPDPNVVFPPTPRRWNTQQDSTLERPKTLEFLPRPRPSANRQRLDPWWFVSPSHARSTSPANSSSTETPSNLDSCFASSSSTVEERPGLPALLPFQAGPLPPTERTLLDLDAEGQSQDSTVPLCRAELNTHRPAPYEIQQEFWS
Procedure, shortened: as §1

Row | Compound | IC50 [1] | IC50 [2] | IC50 [3] | IC50 [4] | IC50 [5] | IC50 [6] | IC50 [7] | IC50 [8] | IC50 [9] | IC50 [10] | IC50 [11] | remaining activity at 1 µM [6] | remaining activity at 1 µM ([8]; read-out: residual kinase activity HIPK2)
1 | c1ccc(Cc2c[nH]c3ncsc23)cc1 [Compound A7, 6-benzyl-4H-pyrrolo[2,3-d]thiazole] | 1000 to 10000 nM | > 1000 nM | > 1000 nM | 1000 to 10000 nM | 1000 to 10000 nM | > 1000 nM | 1000 to 10000 nM | > 1000 nM | > 1000 nM | 10000 to 100000 nM | 1000 to 10000 nM | – | –
2 | Nc1ncsc1C#Cc1cnc2[nH]ccc2c1 [Compound A22, 5-(1H-pyrrolo[2,3-b]pyridin-5-ylethynyl)thiazol-4-ylamine] | 10000 to 100000 nM | 1000 to 10000 nM | > 1000 nM | 10000 to 100000 nM | > 1000 nM | 10 to 1000 nM | 1000 to 10000 nM | 10 to 1000 nM | > 1000 nM | 1000 to 10000 nM | 1000 to 10000 nM | 36% | 44%
3 | Nc1ncsc1C#Cc1cccc(O)c1 [Compound A27, 3-(4-aminothiazol-5-ylethynyl)phenol] | 1000 to 10000 nM | 10000 to 100000 nM | 10000 to 100000 nM | 10000 to 100000 nM | 1000 to 10000 nM | 1000 to 10000 nM | 1000 to 10000 nM | > 1000 nM | > 1000 nM | 1000 to 10000 nM | 1000 to 10000 nM | – | –
4 | CC(C)(C)OC(=O)Nc1ncsc1C#CCN1C(=O)c2ccccc2C1=O [Compound A26, tert-butyl{5-[3-(1,3-dioxo-1,3-dihydroisoindol-2-yl)prop-1-ynyl]-thiazol-4-yl}carbamate] | > 1000 nM | > 1000 nM | 10000 to 100000 nM | 10000 to 100000 nM | > 1000 nM | > 1000 nM | > 1000 nM | 1000 to 10000 nM | > 1000 nM | 10000 to 100000 nM | 1000 to 10000 nM | – | –
5 | CC(C)(C)OC(=O)Nc1nc(-c2ccncc2)sc1C#CCN1CCOCC1 [Compound A25, tert-butyl[5-(3-morpholin-4-ylprop-1-ynyl)-2-pyridin-4-ylthiazol-4-yl]-carbamate] | > 1000 nM | > 1000 nM | 10000 to 100000 nM | > 1000 nM | > 1000 nM | 10 to 1000 nM | > 1000 nM | > 1000 nM | 10000 to 100000 nM | > 1000 nM | > 1000 nM | 48% | –
